Target: T1, McjD (Escherichia coli, UniProt Q9X2W0)
T1 construct: reconstituted in E. coli polar lipid proteoliposomes for transport; plasmid-encoded mcjABCD operon
Test: ATP-dependent Hoechst fluorescence uptake in proteoliposomes
Type: biochemical
Conditions: 0.1 μM Hoechst, 50 mM Tris pH 8, 50 mM KCl, E. coli polar lipids

T1 sequence (Q9X2W0 whole entry): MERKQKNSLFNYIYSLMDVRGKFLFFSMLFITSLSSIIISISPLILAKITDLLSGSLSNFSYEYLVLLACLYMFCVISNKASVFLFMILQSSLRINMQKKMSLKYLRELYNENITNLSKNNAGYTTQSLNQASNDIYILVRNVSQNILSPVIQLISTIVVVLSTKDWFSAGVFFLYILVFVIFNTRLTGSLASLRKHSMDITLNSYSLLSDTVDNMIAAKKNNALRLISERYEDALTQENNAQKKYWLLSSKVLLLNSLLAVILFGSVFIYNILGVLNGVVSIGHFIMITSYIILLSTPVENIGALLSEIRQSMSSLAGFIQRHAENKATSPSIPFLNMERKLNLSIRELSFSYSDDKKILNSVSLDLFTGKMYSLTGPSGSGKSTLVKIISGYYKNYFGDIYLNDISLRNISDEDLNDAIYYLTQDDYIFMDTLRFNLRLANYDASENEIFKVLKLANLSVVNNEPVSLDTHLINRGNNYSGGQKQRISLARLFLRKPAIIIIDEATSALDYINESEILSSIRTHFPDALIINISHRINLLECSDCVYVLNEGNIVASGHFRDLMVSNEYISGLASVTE

`CCOc1ccc(-c2nc3ccc(-c4nc5ccc(N6CCN(C)CC6)cc5[nH]4)cc3[nH]2)cc1` [Hoechst 33342] was tested, and the “ATP-dependent Hoechst fluorescence uptake in proteoliposomes” value was “McjD mediates the ATP‐dependent uptake of Hoechst in proteoliposomes (black line)”.
